The source of these data is US20260092315A1, “COMPOSITIONS AND METHODS FOR DISCOVERING GENE REGULATION” (UNIVERSITY OF UTAH RESEARCH FOUNDATION, priority 2022, published 2026).

One assay deals with p53 protein. The assay can be described thus: p53 protein level after Nutlin-3a treatment of HCT116 cells. Format: cell-based. Conditions: HCT116 cells (wildtype for TP53). The text has this: (§1) FIGS. 3A-3D show TRoUT-FISH positively identifies known mechanisms of gene regulation. Treatment with Nutlin-3a FIG. 3A) stabilizes p53 protein and FIG. 3B) induces CDKN1A transcription. FIG. 3C) FISH and flow cytometry detects drug induced changes in CDKN1A mRNA levels. FIG. 3D) MAGeCK analysis of Nutlin-3a TRoUT-FISH with CDKN1A as the elucidator. ****p<0.0001 T-test.
(§2) The small molecule Nutlin-3a, which inhibits the interaction between MDM2 and p53 and, in doing so, prevents the proteolytic degradation of p53 and permits activation of downstream targets such as CDKN1A, has been used. […] These changes were then assayed using FISH coupled with flow cytometry (FIG. 2). […] A CRISPR screen was performed in HCT116 cells stably expressing Cas9 with a small library targeting ˜1500 transcription factors, including ten sgRNAs against TP53. After acute selection, cells were treated with vehicle or Nutlin-3a and the transcript abundance of CDKN1A was determined by FISH. CDKN1Alow and CDKN1A high populations were sorted by flow cytometry (e.g. FACS), isolated genomic DNA, and sequenced sgRNAs (FIG. 2). This screen positively identified TP53 as the critical mediator of Nutlin-3a induced CDKN1A expression ([…]).

Another assay has as its system CDKN1A transcript. Nature of the assay: CDKN1A transcript after Nutlin-3a treatment of HCT116 cells. Type of assay: cell-based. The settings on record: HCT116 cells (wildtype for TP53).
From the text: as §1, §2

A further assay has as its system CDKN1A mRNA. Nature of the assay: FISH coupled with flow cytometry for CDKN1A mRNA in HCT116 cells. Format: cell-based. As for the experimental part:
as §1
TRoUT-FISH is performed on bulk populations which sidesteps the cost and data sparsity issues common to single cell RNA-seq assays. As TRoUT-FISH experiments are performed without any genetic manipulations prior to CRISPR perturbations, the system is ideally positioned to integrate with other data, including ChIP-seq, ATAC-seq, and ENCODE resources. These other resources provide complementary mechanistic insight of gene regulation. Cells are infected at low MOI with virus encoding a CRISPR library selected based on antibiotic resistance. Cells are cultured for eight days to allow CRISPR editing to occur. […]
The small molecule Nutlin-3a, which inhibits the interaction between MDM2 and p53 and, in doing so, prevents the proteolytic degradation of p53 and permits activation of downstream targets such as CDKN1A, has been used. […] After acute selection, cells were treated with vehicle or Nutlin-3a and the transcript abundance of CDKN1A was determined by FISH. […]

The next assay deals with CDKN1A RNA. The assay can be described thus: MACAREL-FISH barcode recovery with CDKN1A as target RNA. Type of assay: cell-based. Conditions: vehicle versus Nutlin-3a barcoded cells, FACS sorted. The text has this: FIG. 11A-C show Method to Associate Compounds with Altered RNA levels via Fluorescent In Situ Hybridization (MACAREL-FISH). FIG. 11A) Schematic of MACAREL-FISH. FIG. 11B) Schematic of sorting strategy. Magenta boxes indicate the sorted population. Low and high populations were sorted from the Mix 50:50 population.
In brief, cells are arrayed in a 96 well plate (FIG. 11A). MACAREL-FISH is amenable to any cell type including: immortalized cancer cell lines, primary cells, patient cells, and organoids. Each well is incubated with a specific compound. Before, during, or after treatment cells are barcoded (FIG. 11A). Cells are then detached from the plate and fixed with paraformaldehyde (PFA) which locks cells in their current state. Cells are then pooled permeabilized and stained with a DNA dye and incubated overnight in hybridization buffer in the presence of specific DNA oligonucleotides that anneal to an RNA of interest. The DNA oligonucleotides are computationally designed genome-wide to ensure specificity for the elucidator. […] Based on the possible sequence space of barcodes and read length on NGS, this approach can be scaled almost ad infinitum.
Cells were treated with either vehicle control or the small molecule Nutlin-3a. […] After sorting, DNA was extracted and barcodes identity and abundance were measured by sequencing.

For a further assay, the system named is MYC protein. The assay can be described thus: MYC protein level by immunoblot in K562 cells treated with JQ1. Type of assay: cell-based. Conditions: 1 uM JQ1 for 6 h. As for the experimental part: (§3) FIGS. 4A-4C show TRoUT-FISH identifies MYC and BRD4 as regulators of glycolysis. FIG. 4A) TRoUT-FISH data from ENO1 and PGK1 screens. B,C) K562 cells were treated with 1 uM JQ1 for 6 h. FIG. 4B) MYC protein level measured by immunoblot and FIG. 4C) transcripts measured by qPCR. **p<0.01, ****p<0.0001 T-test.
(§4) First, TRoUT-FISH experiments were performed assaying the regulation of ENO1 and PGK1 in K562 cells (FIG. 4A). […] MYC is a well-characterized activator of glycolytic gene expression, and as such served as an internal positive control. BRD4 is a member of the bromodomain and extraterminal domain (BET) family of proteins and is known to regulate MYC at the transcript level.
For orientation: In western blotting, separated proteins are transferred to a membrane and probed.

The next assay relates to MYC transcript. The assay can be described thus: MYC transcript by qPCR in K562 cells treated with JQ1. Type of assay: cell-based. The settings on record: 1 uM JQ1 for 6 h. As for the experimental part:
as §3, §4

The test system of the next assay is ENO1 transcript. Nature of the assay: ENO1 transcript by qPCR in K562 cells treated with JQ1. Type of assay: cell-based. The settings on record: 1 uM JQ1 for 6 h. As for the experimental part:
as §3, §4
(In qPCR the cycle at which signal appears reflects the starting amount.)

For a further assay, the system named is PGK1 transcript. Nature of the assay: PGK1 transcript by qPCR in K562 cells treated with JQ1. Format: cell-based. Conditions: 1 uM JQ1 for 6 h. As for the experimental part: as §3, §4
A further assay concerns ERRFI1. The settings on record: HCT116 cells treated with JQ1, reprocessed RNA-seq data; cited from earlier work.

Consider `COc1ccc(C2=N[C@@H](c3ccc(Cl)cc3)[C@@H](c3ccc(Cl)cc3)N2C(=O)N2CCNC(=O)C2)c(OC(C)C)c1` [Nutlin-3a], for which, in the assay with p53 protein, the p53 protein level result is recorded as “stabilization of p53 protein”. Also, the CDKN1A transcript level entry in the assay on CDKN1A transcript is “induction of CDKN1A transcript”. The “CDKN1A FISH fluorescence by flow cytometry” value in the assay with CDKN1A mRNA (HCT116 cells, versus control and inactive enantiomer) was “higher fluorescence than either the control or inactive enantiomer”. In addition, the “CDKN1A FISH signal upon treatment” value in the assay on CDKN1A mRNA (stable TP53 knockout lines) is “no induction of CDKN1A signal”. For the same compound, the “Effect on CDKN1A RNA abundance (barcode recovery from sorted populations)” value in the assay on CDKN1A RNA is “activator of CDKN1A RNA abundance”.
For `Cc1sc2c(c1C)C(c1ccc(Cl)cc1)=N[C@@H](CC(=O)OC(C)(C)C)c1nnc(C)n1-2` [JQ1], in the assay on MYC protein, the MYC protein level result was “significantly downregulated”. In the assay with MYC transcript, the MYC transcript level result is “significantly downregulated”. The ENO1 transcript level entry in the assay with ENO1 transcript is listed as “significantly downregulated”. The PGK1 transcript level entry in the assay on PGK1 transcript is “significantly downregulated”. In addition, the ERRFI1 levels result with ERRFI1 was “reduction in ERRFI1 levels”.
